Columns and labels:
[1] = biological target: Akt1 (Homo sapiens, UniProt P31749); test: Akt1 inhibition assay using GSK-3 as a substrate (immuno-blotting with anti-phospho-GSK-3α/β); format: biochemical
Experimental: Here the top 4000 compounds out of 50000 docked compounds were selected using FlexX and Drugscore (BioSolvIT). The top 4000 docked structures were further evaluated and ranked according to Goldscore and Chemscore functions (CSCORE). A list of common 200 compounds was then selected among ranked top 700 compounds according to both scoring functions (FIG. 1B). […] The remaining 100 compounds were experimentally tested up to 30 μM against Akt1. The inhibitory activity was evaluated for the selected compounds by using Z'-LYTE™ kit assay provided by Invitrogen Corporation (19). […] Corning® 384-well low volume plates (20 μl) were used. The fluorescent-enzymatic assay has been performed following the protocol provided by Invitrogen Corporation, using a fluorescent plate reader (Victor2, Perkin-Elmer). […] C) Lineweaver-Burk Km and Km(app) evaluation for Akt1. Each measurement was performed in triplicate. […] The Ki and the Km(app) were calculated at fixed inhibitor concentrations, as reported in the text. All constant values were definitely evaluated by fitting the data to the Lineweaver-Burk plot; D) Akt1 inhibition assay using GSK-3 as a substrate. Comparison of compounds 1 and 2 (Table 1) with H89 at 10 μM. E) Dose response for compound 1. […]

[2] = tested on: PI3K; test: Activity of other protein kinases: PI3K; format: biochemical; details: 100 micro.M
Source text: We recently reported on the direct evaluation of a number of in silico approaches to identify AKT inhibitors (Forino et al., 2005) We achieved experimental validation of selected compounds using both a fluorescence-based enzymatic assay and a substrate phosphorylation assay involving the protein GSK-3 (Forino et al., 2005). Briefly, the virtual docking approach consists of selecting the top 4,000 out of 50,000 docked compounds, using a variety of computational docking approaches, including a consensus score among two different scoring functions (Forino et al., 2005). Of those, 100 compounds were selected based on ranking and favorable docking geometry.

[3] = tested on: AKT; test: AKT phosphorylation and expression by western blot in MeWo melanoma cells; format: cell-based
Experimental: (§1) (A) MeWo melanoma cells growing in 60 mm plates were treated with the indicated concentration of the inhibitor for 4 h before proteins were prepared for western blot analysis using the indicated antibodies. Level of beta.actin was monitored as a control for protein loading. (B) Experiment was performed as indicated in panel A, except that cells were harvested after 24 h for analysis of cell death using trypan blue staining. (C) Melanoma (MeWo), prostate cancer (PC3) and breast cancer (MCF7) cells were treated with BI-69A11 at the indicated concentrations; levels of AKT phosphorylation or expression were assessed 4 h later. The level of beta.actin used as a control for protein loading. (D) Experiment was performed as indicated in panel C, except that cells were harvested after 4 h for analysis of cell death using trypan blue staining.
To evaluate the effectiveness of BI-69A11 on melanoma cells we assessed the effect of different concentrations on AKT phosphorylation in MeWO cells.
For western blotting techniques, cells were lysed in RIPA buffer containing 50 mM TrisHCl pH7.4, 150 mM NaCl, 2 mM EDTA, 1% NP-40, 0.1% SDS. The protein concentration was estimated using the Coomassie Protein assay kit (Thermo Scientific, Rockford, Ill., USA). Equal concentrations of cell lysate (30-50 ug) were resolved on a 10% polyacrylamide gel and transferred onto Nitrocellulose membrane (GE Amersham). Membranes were blocked for 1-2 hours in either 3% BSA or 5% nonfat dried milk in Tris-buffered saline containing 0.05% Tween 20. Primary antibody incubations were performed overnight at 4° C. with shaking. The blots were washed followed by incubation with a secondary antibody incubation for 1 hour at room temperature. After washing, the blots were scanned on the Odyssey Licor scanner at the appropriate wavelength and the image was captured using the Odyssey software.

[4] = tested on: PC3 prostate tumor cells; test: Cell death by trypan blue staining, PC3; format: cell-based; details: PC3, 5 micro.M, within 4 hours
Experimental: as §1
For the proliferation assays, cells were treated as described above. However, instead of scraping cells into the serum-free medium, floating cells were collected in a 15 mL centrifuge tube whereas adherent cells trypsinized gently. The total cell population was pooled and counted on a hemocytometer after staining with Trypan Blue.

[5] = tested on: AKT transcripts; test: QPCR analysis of AKT transcripts in melanoma cells; format: cell-based; details: data not shown
Source text: Given the effect of BI-69A11 on the level of AKT protein, we assessed the possible mechanisms underlying such an effect. First, we assessed whether BI-69A11 affects the level of AKT transcripts. RNA prepared from the melanoma cells, with and without treatment with BI-69A11, was subjected to QPCR analysis.

[6] = tested on: c-Jun; test: Levels of HSP90 client protein c-Jun; format: cell-based; details: data not shown
Source text: Among cellular proteins implicated in the regulation of AKT levels is the cellular chaperone HSP90. Inhibition of HSP90 chaperone function, as commonly achieved by the geldanamycin antibiotic, interferes with the conformational maturation and refolding of its associated proteins, thereby promoting their degradation (Munster et al., 2002; Neckers and Neckers, 2003). […] Thus we assessed whether association of AKT with HSP90 could be affected by BI-69A11. Immunoprecipitation of AKT from melanoma cells identified HSP90 in the immunoprecipitated material. Such association was however abolished following treatment with the BI-69A11 inhibitor (FIG. 6C). […] To this end, we also performed the experiment in the presence of the proteasome inhibitor MG132.

Chain of Akt1 (P31749 whole entry): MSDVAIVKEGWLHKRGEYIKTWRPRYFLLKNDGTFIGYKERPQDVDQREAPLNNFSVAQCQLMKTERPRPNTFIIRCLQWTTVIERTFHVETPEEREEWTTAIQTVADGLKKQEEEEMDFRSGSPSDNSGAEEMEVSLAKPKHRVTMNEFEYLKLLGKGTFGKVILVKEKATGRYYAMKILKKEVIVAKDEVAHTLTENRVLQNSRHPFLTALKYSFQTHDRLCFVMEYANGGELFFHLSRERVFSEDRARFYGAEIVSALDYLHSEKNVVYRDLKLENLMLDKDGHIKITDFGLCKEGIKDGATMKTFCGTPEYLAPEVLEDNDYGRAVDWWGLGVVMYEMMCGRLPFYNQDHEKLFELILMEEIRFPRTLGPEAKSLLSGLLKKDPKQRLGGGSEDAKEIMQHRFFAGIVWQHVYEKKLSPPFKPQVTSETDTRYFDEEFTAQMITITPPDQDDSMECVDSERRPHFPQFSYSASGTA

O=C(/C=C/c1nc2ccccc2[nH]1)c1c(O)nc2ccc(Cl)cc2c1-c1ccccc1 [Compound 2, (E)-3-(3-(1H-benzo[d]imidazol-2-yl)acryloyl)-6-chloro-4-phenylquinolin-2(1H)-one]
inhibition of GSK-3 phosphorylation [1]: low micromolar range
effect on PI3K activity [2]: did not affect
AKT phosphorylation on S473 ([3]; 3 micro.M, 4 h): partial inhibition
AKT protein levels ([3]; 5 and 10 micro.M): reduced levels of AKT protein
basal level of AKT phosphorylation ([3]; 5 and 10 micro.M, 4 h): effectively inhibited
AKT phosphorylation ([3]; low doses (<0.3 micro.M), 4 h): did not affect
cell death [4]: about 25%
level of AKT transcripts [5]: did not identify differences
c-Jun protein levels [6]: did not affect

From US20120190707A1, “SELECTIVE INHIBITORS OF AKT AND METHODS OF USING SAME” (priority 2008, published 2012)
